This passage reports IC50 results from US20250188042A1, “HETEROCYCLIC COMPOUND, PREPARATION METHOD THEREFOR, AND USE THEREOF” (SICHUAN UNIVERSITY, priority 2023, published 2025).

The IC50 is the point on the concentration scale where inhibition reaches its midpoint.

The subject of one assay is HSC-4. Description: CCK8 proliferation assay on squamous cell carcinoma cell line HSC-4. In kind it is cell-based. The settings on record: Homo sapiens, second of two lines listed (HSC-3, HSC-4), 48 h, read-out: IC50 against SCC cells (second of two SCC cells). The protocol:
(§1) Squamous cell carcinoma cell lines: HSC-3, HSC-4.
(§2) The above two tumor cell lines were cultured in a standardized incubator at 37° C. under 5% CO2; the cells in logarithmic growth phase were digested and counted, followed by seeding in a 96-well plate at 3000 cells/well, and then cultured overnight in an incubator. The stock solution of each compound was prepared using DMSO at a concentration of 10 mM, and diluted sequentially (0, 1.25, 2.5, 5, 10 μM) before treating the cells. The control group was added with the highest concentration of DMSO, and then cultivated continuously in an incubator for 48 h. The CCK8 cell proliferation kit was used to detect the effect of each compound on the proliferation of tumor cells. Moreover, the experimental results of representative compounds were analyzed, and their IC50 values were calculated to evaluate the effect of the compounds on the proliferation of tumor cells.
(In general: Formazan colour is commonly taken as a measure of viable cells.)
For `O=C(CCn1ccc(=O)n(CCC(=O)Nc2ccc(C34CC5CC(CC(C5)C3)C4)cc2)c1=O)Nc1ccc(C23CC4CC(CC(C4)C2)C3)cc1` [Compound 8a], the IC50 came to 9.87 µM.

Another assay concerns HSC-3. Description: CCK8 proliferation assay on squamous cell carcinoma cell line HSC-3. The settings on record: Homo sapiens, first of two lines listed (HSC-3, HSC-4), 48 h, read-out: IC50 against SCC cells (first of two SCC cells). In kind it is cell-based. The protocol: as §1, §2
Consider `O=C(CCn1ccc(=O)n(CCC(=O)Nc2ccc(C34CC5CC(CC(C5)C3)C4)cc2)c1=O)Nc1ccc(C23CC4CC(CC(C4)C2)C3)cc1` [Compound 8a], for which the half-maximal inhibitory concentration (IC50) stood at 4.85 µM.

A further assay concerns SCC cells. Description: CCK8 proliferation assay on SCC cells (cell line not specified). The settings on record: SCC cell line not stated (HSC-3 or HSC-4), 48 h, read-out: IC50 against SCC cells. In kind it is cell-based. On the procedure: as §1, §2
`CCc1cn(CCC(=O)Nc2ccc(C34CC5CC(CC(C5)C3)C4)cc2)c(=O)n(CCC(=O)Nc2ccc(C34CC5CC(CC(C5)C3)C4)cc2)c1=O` [Compound 10a]: the half-maximal inhibitory concentration (IC50) came out at 6.18 µM. Take `N#Cc1cn(CCC(=O)Nc2ccc(C34CC5CC(CC(C5)C3)C4)cc2)c(=O)n(CCC(=O)Nc2ccc(C34CC5CC(CC(C5)C3)C4)cc2)c1=O` [Compound 12a]: the IC50 amounted to 9.54 µM.

As for `COc1cn(CCC(=O)Nc2ccc(C34CC5CC(CC(C5)C3)C4)cc2)c(=O)n(CCC(=O)Nc2ccc(C34CC5CC(CC(C5)C3)C4)cc2)c1=O` [Compound 14a], the concentration for half-maximal inhibition (IC50) was determined as 6.18 µM. Still for that read-out and setting: the same measure for `O=C(CCn1cc(Cl)c(=O)n(CCC(=O)Nc2ccc(C34CC5CC(CC(C5)C3)C4)cc2)c1=O)Nc1ccc(C23CC4CC(CC(C4)C2)C3)cc1` [Compound 16a]: 9.66 µM; for `O=C(CCn1cc(Br)c(=O)n(CCC(=O)Nc2ccc(C34CC5CC(CC(C5)C3)C4)cc2)c1=O)Nc1ccc(C23CC4CC(CC(C4)C2)C3)cc1` [Compound 18a]: 4.85 µM; for `O=C(CCn1cc(I)c(=O)n(CCC(=O)Nc2ccc(C34CC5CC(CC(C5)C3)C4)cc2)c1=O)Nc1ccc(C23CC4CC(CC(C4)C2)C3)cc1` [Compound 20a]: 4.86 µM.

`Nc1ccn(CCC(=O)Nc2ccc(C34CC5CC(CC(C5)C3)C4)cc2)c(=O)n1` [Compound 24]: the 50% inhibitory concentration (IC50) stood at 1.48 µM.
